{"source": "the kinase profiling compilation of Christmann-Franck et al. (2016)", "data": [{"target": "SGK1 (human) (UniProt O00141)", "sequence (O00141 whole entry, looked up)": "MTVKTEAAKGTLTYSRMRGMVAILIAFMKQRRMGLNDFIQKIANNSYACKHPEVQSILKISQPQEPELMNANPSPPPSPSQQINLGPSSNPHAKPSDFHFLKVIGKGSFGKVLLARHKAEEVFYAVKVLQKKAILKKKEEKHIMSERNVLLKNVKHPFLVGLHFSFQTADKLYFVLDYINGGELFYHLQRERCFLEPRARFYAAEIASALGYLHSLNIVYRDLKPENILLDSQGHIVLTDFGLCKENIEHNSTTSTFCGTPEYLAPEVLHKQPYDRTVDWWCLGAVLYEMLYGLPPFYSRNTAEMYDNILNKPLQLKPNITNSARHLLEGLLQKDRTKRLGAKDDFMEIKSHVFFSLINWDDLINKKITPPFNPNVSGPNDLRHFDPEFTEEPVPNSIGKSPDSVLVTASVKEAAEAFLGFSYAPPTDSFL", "assay": "Flashplate", "units": {"Ki": "µM"}, "values": [{"smiles": "Cc1c(O)cccc1NC(=O)c1cnn2c(-c3ccccc3)ccnc12", "Ki": "> 10"}, {"smiles": "Cc1cccc(NC(=O)Nc2ccc(-c3csc4c(C#CCN5CCOCC5)cnc(N)c34)cc2)c1", "Ki": 6.31}, {"smiles": "Nc1ncnc2c1N=C(c1ccc(NC(=O)Nc3cccc(C(F)(F)F)c3)cc1)CCN2", "Ki": 2.51}, {"smiles": "NC(=O)c1cccc2[nH]c(-c3ccc(C4CCCNC4)cc3F)nc12", "note": "(configuration not stated)", "Ki": "> 10"}, {"smiles": "CN(C)c1cc2sncc2cc1NC(=O)C(=O)O", "Ki": "> 10"}, {"smiles": "COc1cncc(/C=C/c2ccncc2)c1", "Ki": "> 10"}, {"smiles": "Cc1cc(O)ccc1-n1c2cc(Cl)ccc2c(=O)c2c(N)nc(N)nc21", "Ki": 5.01}, {"smiles": "COCCNc1nccc(-c2c(-c3ccc(F)cc3)nc3cnccn23)n1", "Ki": "> 10"}, {"smiles": "COc1ccc(OC)c(NC(=O)c2cnn3c(-c4ccccc4)ccnc23)c1", "Ki": "> 10"}, {"smiles": "Clc1csc2ncnc(Nc3ccccc3)c12", "Ki": "> 10"}, {"smiles": "COc1cccc([C@H](C)NC(=O)c2ccc(-c3ccncc3)c(C)c2)c1", "Ki": 0.316}, {"smiles": "NC(=O)c1cccc2[nH]c(-c3ccncc3)nc12", "Ki": 6.31}, {"smiles": "CCN1CCN(CCCC(=O)Nc2n[nH]c3nnc(-c4cccc(F)c4F)cc23)CC1", "Ki": "> 10"}, {"smiles": "O=c1[nH]c2sccc2c2nc(-c3ccncc3)nn12", "Ki": "> 10"}, {"smiles": "O=C(NCc1ccc(Cl)cc1)c1cc2c(-c3ccccc3)n[nH]c2s1", "Ki": 1}, {"smiles": "COc1ccc(C(=O)N2c3ccccc3Sc3c(Cl)cncc32)cc1", "Ki": 0.398}, {"smiles": "N#Cc1ncc2nc1OCCCCCOc1cc(CCCO)c(Cl)cc1NC(=O)N2", "Ki": "> 10"}, {"smiles": "O=C(NCc1ccc(Cl)cc1)Nc1cccc2[nH]ncc12", "Ki": "> 10"}, {"smiles": "NC1CCCCC1Nc1nccc(-c2c[nH]c3ncccc23)n1", "note": "(configuration not stated)", "Ki": 1.58}, {"smiles": "COc1ccc(-c2cc3nccn3c(Nc3ncccc3C(N)=O)n2)cc1OC", "Ki": "> 10"}, {"smiles": "CSc1ccccc1CNc1ncc([N+](=O)[O-])c(NCC2CCC(CN)CC2)n1", "note": "(configuration not stated)", "Ki": 6.31}, {"smiles": "N#Cc1ccc2nc(N)n(-c3nc(-c4ccccc4)cs3)c2c1", "Ki": "> 10"}, {"smiles": "Cc1cc(NC(=O)CCNC(=O)Nc2nc(C)c(-c3ccc(-n4cccn4)cc3)s2)no1", "Ki": "> 10"}, {"smiles": "OCCCn1cnc(-c2ccccc2)c1-c1ccncc1", "Ki": "> 10"}, {"smiles": "c1ccc(CNc2nc3ccc(-c4ccncc4)cc3s2)cc1", "Ki": 2.51}, {"smiles": "O=C(Nc1n[nH]c2nc3ccccc3cc12)c1ccncc1", "Ki": 1.58}, {"smiles": "O=C(Cc1ccccc1Cl)Nc1ccc2cn[nH]c2c1", "Ki": "> 10"}, {"smiles": "CN(C)c1ccc(CNC(=O)c2cc3c(-c4ccccc4)n[nH]c3s2)cc1", "Ki": 7.94}, {"smiles": "CCCn1cc(-c2cnc(N)c3c(-c4ccc(NC(=O)Nc5cccc(F)c5)cc4)csc23)cn1", "Ki": "> 10"}, {"smiles": "Oc1ccc(-c2nc(-c3ccc(F)cc3)c(-c3ccncc3)[nH]2)cc1", "Ki": "> 6.31"}, {"smiles": "O=C(NNC(=S)Nc1ccc(Cl)cc1)C(O)(c1ccccc1)c1ccccc1", "Ki": "> 10"}, {"smiles": "CC(C)(C)c1ccc2nc(-c3n[nH]c4ccccc34)[nH]c2c1", "Ki": 1.26}, {"smiles": "Cc1cc(O)ccc1-n1cc(C(=O)NN)c(=O)c2ccc(-c3ccncc3)cc21", "Ki": "> 10"}, {"smiles": "CSc1nn(-c2ccccn2)c(N)c1C(N)=O", "Ki": 6.31}, {"smiles": "Cc1n[nH]c2ccc(-c3cncc(OCC(CN)Cc4ccccc4)c3)cc12", "note": "(configuration not stated)", "Ki": 1.26}, {"smiles": "Cc1cnc(Nc2cccc(S(N)(=O)=O)c2)nc1Nc1ccc(OCC(N)=O)cc1", "Ki": 6.31}, {"smiles": "O=C(NC(CO)Cc1ccc(Cl)cc1)c1ccc(-c2ccncc2)cc1", "note": "(configuration not stated)", "Ki": "> 10"}, {"smiles": "CC(C)(O)c1nnc2ccc(-c3c(-c4ccc(F)cc4F)nc4n3CCC4)nn12", "Ki": "> 10"}, {"smiles": "O=C(NCc1ccccc1)c1ccc(-c2ccncc2)cc1", "Ki": 3.16}, {"smiles": "O=C(Nc1cnccn1)Nc1ccnc2ccccc12", "Ki": 1.26}, {"smiles": "c1cnc2nc(-c3ccc4[nH]ncc4c3)c(NC3CCCCC3)n2c1", "Ki": 2.51}, {"smiles": "Cc1ccc2c(c1)NC(=O)c1ccccc1N2", "Ki": "> 10"}, {"smiles": "C[C@H](N)COc1cnc(Cl)c(/C=C/c2ccncc2)c1", "Ki": 5.01}, {"smiles": "COc1cc(OC)c(Nc2ccc3nnc(-c4ccccc4)n3n2)cc1Cl", "Ki": "> 10"}, {"smiles": "CN1CC[C@H]1COc1cncc(CCc2ccncc2)c1", "Ki": "> 10"}, {"smiles": "Cc1cc(NC(=O)Cc2ccc(-c3cccc4[nH]nc(N)c34)cc2)ccc1F", "Ki": 1.26}, {"smiles": "CN(C)CC(=O)Nc1n[nH]c2ccc(-c3cn(Cc4ccccc4)nn3)cc12", "Ki": 2}, {"smiles": "CC(C)S(=O)(=O)n1c(N)nc2ccc(-c3c(-c4ccc(F)cc4)nc4sccn34)cc21", "Ki": "> 10"}, {"smiles": "c1ccc(COc2ccc(Nc3ncnc4ccccc34)cc2)cc1", "Ki": "> 10"}, {"smiles": "CCN1CCN(c2ccc(Nc3nccc(-c4c(-c5cccc(C(=O)Nc6ccccc6F)c5)nc5ccccn45)n3)cc2)CC1", "Ki": 6.31}, {"smiles": "CNC(=O)/C=C/c1cnc(N)c2c(-c3ccc4c(c3)OCO4)csc12", "Ki": "> 10"}, {"smiles": "Cc1cc(C)cc(NC(=O)Nc2ccc(-c3cccc4sncc34)cc2)c1", "Ki": "> 10"}, {"smiles": "Nc1nccc2scc(-c3ccc(NC(=O)Nc4cccc(F)c4)cc3)c12", "Ki": "> 10"}, {"smiles": "Cc1cn2c(-c3ccnc(NCC(C)(C)CO)n3)c(-c3ccc(F)cc3F)nc2c(C)n1", "Ki": "> 10"}, {"smiles": "Cc1cccc(NC(=O)Nc2ccc(-c3csc4nc(N)nc(N)c34)cc2)c1", "Ki": "> 10"}, {"smiles": "CNC(=O)c1cc2c(-c3ccccc3F)n[nH]c2s1", "Ki": 3.16}, {"smiles": "O=C(Cc1ccccc1)Nc1cccc(-c2nc3sccn3c2-c2ccnc(Nc3cccc(N4CCOCC4)c3)n2)c1", "Ki": "> 10"}, {"smiles": "NCCOc1cccc(Nc2ccnc(N)n2)c1", "Ki": "> 10"}, {"smiles": "Cn1c(=O)c(Oc2ccc(F)cc2F)cc2cnc(NC3CCOCC3)nc21", "Ki": "> 10"}, {"smiles": "Clc1cc2nn[nH]c2cc1Cl", "Ki": "> 10"}, {"smiles": "CCOc1nc(NC(=O)Cc2cc(OC)ccc2OC)cc(N)c1C#N", "Ki": "> 10"}, {"smiles": "Cc1ccc(-c2ccc(NC(=O)Nc3cccc(Br)c3)cc2)c2c(N)n[nH]c12", "Ki": 5.01}, {"smiles": "O=C(Nc1n[nH]c2ccc(-c3cn(Cc4ccccc4)nn3)cc12)c1ccccc1", "Ki": 0.0631}, {"smiles": "CC1=NN(c2ccc(Cl)c(Cl)c2)C(=O)/C1=C\\c1c(C)c(C#N)c2nc3ccccc3n2c1O", "Ki": "> 10"}, {"smiles": "Cc1cccc(NC(=O)Nc2ccc(-c3cnc4c(-c5cnn(C)c5)cnn4c3N)cc2)c1", "Ki": 6.31}, {"smiles": "NNc1cc(N2CCOCC2)nc(OCCc2ccccn2)n1", "Ki": "> 10"}, {"smiles": "Cc1ccc(-n2nc(C)c3c(=O)c4cc(Cl)ccc4n(O)c32)cc1", "Ki": "> 10"}, {"smiles": "O=C1CC(c2ccc(Cl)cc2Cl)Cc2[nH]c3cc(Cl)ccc3c(=O)c21", "note": "(configuration not stated)", "Ki": "> 10"}, {"smiles": "O=C1Nc2ccccc2Nc2nnccc21", "Ki": "> 10"}, {"smiles": "Cc1cccc(NC(=O)Nc2ccc(-c3csc4c(C#CCN(C)C)cnc(N)c34)cc2)c1", "Ki": 6.31}, {"smiles": "CC(=O)N[C@@H]1CCN(c2nc3[nH]cc(C(=O)O)c(=O)c3c(C)c2F)C1", "Ki": "> 10"}, {"smiles": "CS(=O)(=O)NCCOc1cncc(-c2ccc3cnccc3c2)c1", "Ki": 3.98}, {"smiles": "Brc1ccc2[nH]nc(-c3ccccc3)c2c1", "Ki": "> 10"}, {"smiles": "CNc1ncnc2c1N=C(c1ccc(NC(=O)Nc3cccc(C(F)(F)F)c3)cc1)CCN2", "Ki": "> 10"}, {"smiles": "CNc1nccn2c(-c3ccnc(NCC(C)(C)CO)n3)c(-c3ccc(F)cc3)nc12", "Ki": "> 10"}, {"smiles": "O=C(Nc1cnc2[nH]cc(-c3ccccc3)c2c1)c1cccc(F)c1F", "Ki": 7.94}, {"smiles": "C[C@@H](N)C1CCC(C(=O)Nc2ccnc3[nH]ccc23)CC1", "note": "(some centres not stated)", "Ki": "> 10"}, {"smiles": "NC(=O)c1cc2c(-c3ccc(F)cc3F)cncc2s1", "Ki": 1.26}, {"smiles": "C[C@@H](Nc1nccc(-c2c(-c3ccc(F)cc3)nc3occn23)n1)c1ccccc1", "Ki": "> 10"}, {"smiles": "Cc1cccc(-c2[nH]c(-c3ccnc(N)n3)cc2C(N)=O)c1C", "Ki": "> 10"}, {"smiles": "O=C1Cc2c([nH]c3ccc([N+](=O)[O-])cc23)-c2ccccc2N1", "Ki": "> 10"}, {"smiles": "COCCN(C)C(=O)c1c(-c2ccc3[nH]ncc3c2)nnn1Cc1ccccc1", "Ki": 1.58}]}]}
